Measurements: patent publication US20240016781A1, “TREATMENT OF KRAS MUTANT CANCERS” (MEI Pharma, Inc., priority 2020, published 2024)
pEC50, pIC50: −log10 of the molar value. Values joined by “and” are separate entries in the source; they are usually repeats but may differ in a detail not shown here. Equal entries are not always repeated. Where two headings read alike, the source gives them in different places.

What was measured:
Assay in all cases: 72-hour CellTiter-Glo 2.0 growth inhibition screen (single agent, 9x9 combination dose matrix);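 for Best CI Level: inhibition effect level at which the best CI was calculated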
Type in all cases: cell-based
[1] = test system: SW837;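 for Best CI Level: inhibition effect level at which the best CI was calculated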
[2] = test system: SW48 KRAS (G12C/+);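 for Best CI Level: inhibition effect level at which the best CI was calculated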
[3] = test system: NCI-H358;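 for Best CI Level: inhibition effect level at which the best CI was calculated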
[4] = test system: AsPC-1;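 for Best CI Level: inhibition effect level at which the best CI was calculated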
[5] = test system: HCC1171;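 for Best CI Level: inhibition effect level at which the best CI was calculated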
[6] = SW837, Colorectal, Additional Single Agent Responses (inhibition, % I), 72 h
[7] = SW837, Colorectal, growth inhibition (GI) curve, single agent, 72 h
[8] = SW837, Colorectal, growth inhibition (GI), AUC, single agent, 72 h
[9] = SW48 KRAS (G12C/+), Colorectal, Additional Single Agent Responses (inhibition, % I), 72 h
[10] = SW48 KRAS (G12C/+), Colorectal, growth inhibition (GI), AUC, single agent, 72 h
[11] = NCl-H358, Lung, Additional Single Agent Responses (inhibition, % I), 72 h
[12] = NCl-H358, Lung, growth inhibition (GI) curve, single agent, 72 h
[13] = NCl-H358, Lung, growth inhibition (GI), AUC, single agent, 72 h
[14] = AsPC-1, Pancreas, Additional Single Agent Responses (inhibition, % I), 72 h
[15] = AsPC-1, Pancreas, growth inhibition (GI) curve, single agent, 72 h
[16] = AsPC-1, Pancreas, growth inhibition (GI), AUC, single agent, 72 h
[17] = HCC1171, Lung, Additional Single Agent Responses (inhibition, % I), 72 h
[18] = HCC1171, Lung, growth inhibition (GI) curve, single agent, 72 h
[19] = HCC1171, Lung, growth inhibition (GI), AUC, single agent, 72 h
[20] = SW837 (KRAS G12C), enhancer + MEI-522 (Voruciclib), 72 h;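 for Best CI Level: inhibition effect level at which the best CI was calculated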
[21] = enhancer combined with MEI-522 (Voruciclib), SW837 (Colorectal), 72 hours, inhibition data
[22] = SW48 KRAS (G12C/+), enhancer + MEI-522 (Voruciclib), 72 h
[23] = enhancer combined with MEI-522 (Voruciclib), SW48 KRAS (G12C/+) (Colorectal), 72 hours, inhibition data
[24] = NCl-H358 (KRAS G12C), enhancer + MEI-522 (Voruciclib), 72 h
[25] = enhancer combined with MEI-522 (Voruciclib), NCl-H358 (Lung), 72 hours, inhibition data
[26] = AsPC-1 (KRAS G12D), enhancer + MEI-522 (Voruciclib), 72 h;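 for Best CI Level: inhibition effect level at which the best CI was calculated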
[27] = enhancer combined with MEI-522 (Voruciclib), AsPC-1 (Pancreas), 72 hours, inhibition data
[28] = HCC1171 (KRAS G12C), enhancer + MEI-522 (Voruciclib), 72 h;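 for Best CI Level: inhibition effect level at which the best CI was calculated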
[29] = enhancer combined with MEI-522 (Voruciclib), HCC1171 (Lung), 72 hours, inhibition data

## CN1CC[C@@H](c2c(O)cc(O)c3c(=O)cc(-c4ccc(C(F)(F)F)cc4Cl)oc23)[C@@H]1CO [MEI-522(Voruciclib)]
[1]; [6]
  pEC50: 5.70
  pIC50: 5.68
  Response Area: 2.44
[1]; SW837, Colorectal, Additional Single Agent Responses, 72 h
  Max Response (% I): 90 % I
[1]; [7]
  pEC50: 5.68
  GI50: 1750 nM
[1]; [8]
  Response Area: 4.48
[1]; SW837, Colorectal, growth inhibition (GI), single agent, 72 h
  Max Response (% GI): 166 % GI
[2]; [9]
  pIC50: 6.14
  Response Area: 2.74
[2]; SW48 KRAS (G12C/+), Colorectal, Additional Single Agent Responses (inhibition, % I), 72 h, read-out: EC50
  pEC50: 6.23
[2]; SW48 KRAS (G12C/+), Colorectal, Additional Single Agent Responses, 72 h
  Max Response (% I): 85 % I
[2]; SW48 KRAS (G12C/+), Colorectal, growth inhibition (GI) curve, single agent, 72 h
  GI50: 586 nM
[2]; SW48 KRAS (G12C/+), Colorectal, growth inhibition (GI) curve, single agent, 72 h, read-out: EC50
  pEC50: 6.14
[2]; [10]
  Response Area: 3.67
[2]; SW48 KRAS (G12C/+), Colorectal, growth inhibition (GI), single agent, 72 h
  Max Response (% GI): 115 % GI
[3]; [11]
  pEC50: 6.23
  pIC50: 6.20
  Response Area: 2.50
[3]; NCl-H358, Lung, Additional Single Agent Responses, 72 h
  Max Response (% I): 85 % I
[3]; [12]
  pEC50: 6.22
  GI50: 585 nM
[3]; [13]
  Response Area: 3.61
[3]; NCl-H358, Lung, growth inhibition (GI), single agent, 72 h
  Max Response (% GI): 137 % GI
[4]; [14]
  pEC50: 5.87
  pIC50: 5.63
  Response Area: 1.96
[4]; AsPC-1, Pancreas, Additional Single Agent Responses, 72 h
  Max Response (% I): 68 % I
[4]; [15]
  pEC50: 5.87
  GI50: 1340 nM
[4]; [16]
  Response Area: 2.86
[4]; AsPC-1, Pancreas, growth inhibition (GI), single agent, 72 h
  Max Response (% GI): 99 % GI
[5]; [17]
  pEC50: 6.17
  pIC50: 5.52
  Response Area: 1.62
[5]; HCC1171, Lung, Additional Single Agent Responses, 72 h
  Max Response (% I): 51 % I
[5]; [18]
  pEC50: 6.17
  GI50: 734 nM
[5]; [19]
  Response Area: 2.84
[5]; HCC1171, Lung, growth inhibition (GI), single agent, 72 h
  Max Response (% GI): 89 % GI

## C=CC(=O)N1CCN(c2nc(=O)n(-c3c(C)ccnc3C(C)C)c3nc(-c4c(O)cccc4F)c(F)cc23)[C@@H](C)C1 [AMG510]
[1]; Homo sapiens, SW837, 72 h, SW837, Colorectal, Additional Single Agent Responses (inhibition, % I), 72 h
  pEC50: 8.00
[1]; Homo sapiens, SW837, 72 h, SW837, Colorectal, growth inhibition (GI) curve, single agent, 72 h
  pEC50: 7.98
[1]; Homo sapiens, SW837, Colorectal, Additional Single Agent Responses, 72 h, read-out: Max Response (% I)
  Emax: 37%
[1]; Homo sapiens, SW837, Colorectal, growth inhibition (GI) curve, single agent, 72 h
  GI50: 162 nM
[1]; Homo sapiens, SW837, Colorectal, growth inhibition (GI), single agent, 72 h, read-out: Max Response (% GI)
  Emax: 56%
[1]; [20]
  Best CI: 0.72
  Bliss Volume: 7.24
  HSA volume: 6.16
  Loewe Volume: 6.02
  Synergy Score: 6.03
[1]; [6]
  Response Area: 1.79
[1]; [8]
  Response Area: 2.67
[1]; [21]
  Best CI: 0.64
  Best CI Level: 65
  Bliss Volume: 2.98
  HSA volume: 4.27
  Loewe Volume: 4.27
  Synergy Score: 2.77
[2]
  HSA volume: 5.42 and 3.57
  Loewe Volume: 4.73
[2]; Homo sapiens, SW48, 72 h
  pEC50: 8.68
[2]; Homo sapiens, SW48, 72 h, read-out: Max Response (% GI)
  Emax: 36%
[2]; Homo sapiens, SW48, 72 h, read-out: Max Response (% I)
  Emax: 29%
[2]; [9]
  Response Area: 1.47
[2]; [10]
  Response Area: 1.78
[2]; [22]
  Best CI: 0.36
  Synergy Score: 5.97
[2]; [23]
  Best CI: 0.62
  Best CI Level: 60
[3]; Homo sapiens, NCI-H358, 72 h, NCl-H358, Lung, Additional Single Agent Responses (inhibition, % I), 72 h
  pEC50: 8.07
[3]; Homo sapiens, NCI-H358, 72 h, NCl-H358, Lung, growth inhibition (GI) curve, single agent, 72 h
  pEC50: 8.03
[3]; Homo sapiens, NCI-H358, NCl-H358, Lung, Additional Single Agent Responses (inhibition, % I), 72 h
  pIC50: 7.85
[3]; Homo sapiens, NCI-H358, NCl-H358, Lung, Additional Single Agent Responses, 72 h, read-out: Max Response (% I)
  Emax: 79%
[3]; Homo sapiens, NCI-H358, NCl-H358, Lung, growth inhibition (GI) curve, single agent, 72 h
  GI50: 8.8 nM
[3]; Homo sapiens, NCI-H358, NCl-H358, Lung, growth inhibition (GI), single agent, 72 h, read-out: Max Response (% GI)
  Emax: 108%
[3]; [24]
  Best CI: 0.51
  Bliss Volume: 4.55
  HSA volume: 2.53
  Loewe Volume: 2.07
  Synergy Score: 3.63
[3]; [11]
  Response Area: 3.87
[3]; [13]
  Response Area: 5.18
[3]; [25]
  Best CI: 0.51
  Best CI Level: 20
  Bliss Volume: −0.42
  HSA volume: 1.90
  Loewe Volume: 1.20
  Synergy Score: 1.07
[4]; [26]
  Best CI: 0.47
  Bliss Volume: 2.91
  HSA volume: −3.63
  Loewe Volume: 0.38
  Synergy Score: 0.82
[4]; [14]
  Response Area: 0.00
[4]; [16]
  Response Area: 0.00
[4]; Homo sapiens, ASPC1, AsPC-1, Pancreas, Additional Single Agent Responses (inhibition, % I), 72 h
  pEC50: 5.52
[4]; Homo sapiens, ASPC1, AsPC-1, Pancreas, Additional Single Agent Responses, 72 h, read-out: Max Response (% I)
  Emax: 6%
[4]; Homo sapiens, ASPC1, AsPC-1, Pancreas, growth inhibition (GI), single agent, 72 h, read-out: Max Response (% GI)
  Emax: 8%
[4]; [27]
  Best CI: 0.64
  Best CI Level: 20
  Bliss Volume: 1.95
  HSA volume: −2.52
  Loewe Volume: 0.26
  Synergy Score: 0.32
[5]; [28]
  Best CI: 0.26
  Bliss Volume: 3.26
  HSA volume: 4.61
  Loewe Volume: 6.02
  Synergy Score: 7.42
[5]; [17]
  pEC50: 8.55
  Response Area: 1.99
[5]; HCC1171, Lung, Additional Single Agent Responses, 72 h, read-out: Max Response (% I)
  Emax: 48%
[5]; [18]
  GI50: 5.5 nM
[5]; [19]
  Response Area: 3.50
[5]; HCC1171, Lung, growth inhibition (GI), single agent, 72 h, read-out: Max Response (% GI)
  Emax: 85%
[5]; [29]
  Best CI: 0.22
  Bliss Volume: −0.99
  HSA volume: 2.26
  Loewe Volume: 3.06
  Synergy Score: 2.15
[5]; enhancer combined with MEI-522 (Voruciclib), HCC1171 (Lung), 72 hours, inhibition data, unit assumed
  Best CI Level: 50%
